Reference: patent US20210315175A1, “METHODS OF MAKING FEMINIZED CANNABIS SATIVA SEED AND COMPOSITIONS THEREOF” (priority 2019, published 2021)

Assays:
[1] = system: genetically female Cannabis ssp plants; experiment: 1-MCP root drench: induction of male flowers (Example 19); type: in vivo; conditions: 0.27 mM or 0.54 mM 1-MCP root drench, three treatments, 3 varieties
Protocol: To determine if the ethylene inhibitor 1-Methylcyclopropene (1-MCP) can induce male flowers on genetically female Cannabis ssp plants, 1-MCP was applied at two different rates to 3 different varieties, with 2 replicates per treatment. The plants were treated with 1-MCP three times, with the first treatment 51 days after seeding, which was on the day plants were transitioned from a vegetative, long day photoperiod (18 h day) to a reproductive, short day photoperiod (12 h day), the second treatment was applied 7 days later and the third treatment was 8 days after the second. For the first two treatments the low rate was 0.27 mM 1-MCP and 25 ml solution per plant was immediately applied as a root drench. The high rate was 0.54 mM and similarly, 25 ml of solution was applied as a root drench. For the third treatment, the dose was doubled by applying 50 ml of the solutions described above, as the plants were larger.

[2] = system: genetically female Cannabis ssp plants; experiment: AIB root drench: induction of male flowers and phytotoxicity (Example 21); type: in vivo
Protocol: To determine if the ethylene inhibitor 2-Aminoisobutyric acid (AIB) can induce male flowers on genetically female Cannabis ssp plants, three different rates of 2-Aminoisobutyric acid (AIB) were applied to plants as a root drench, with two applications per rate. The first application occurred 79 days after seeding, which was on the day plants were transitioned from a vegetative, long day photoperiod (18 h day) to a reproductive, short day photoperiod (12 h day), and the second treatment was applied 5 days later. The stem diameter of the plants on the day of the first treatment were 9 to 10 mm and the plants ranged from 37 to 54 cm in height. The three rates tested were 50, 150 and 300 mM AIB in water, and 150 ml of solution was applied to the roots as a soil drench.

| Structure (SMILES) | chlorosis [1] | male structures [1] | survival and male structures ([2]; 50 and 150 mM AIB, two root drenches) | phytotoxicity ([2]; after the second treatment, particularly in the highest rate) | plant survival ([2]; highest rate (300 mM AIB), two root drenches) | phytotoxicity in leaf and meristematic tissues ([2]; within 2 days of the first treatment, 50, 150 and 300 mM AIB, 150 ml root drench) |
| --- | --- | --- | --- | --- | --- | --- |
| CC1=CC1 [1-MCP, 1-Methylcyclopropene] | mild chlorosis of growing apices | no clear or consistent male structures were observed in any of the treatments | – | – | – | – |
| CC(C)(N)C(=O)O [AIB, 2-Aminoisobutyric acid] | – | – | survived and produced small male structures that did not produce viable pollen | more severe phototoxicity | the plant ultimately died | Mild phytotoxicity |
